Here are results for four compounds from patent US11136362B2, “Peptide modulators of specific calcineurin protein-protein interactions” (The Board of Trustees of the Leland Stanford Junior …, priority 2016, dated 2021).

Series [1] has as its system H9C2 cells. Nature of the series: H9C2 cell model of ischemia-reoxygenation, lactate dehydrogenase release. Type of series: cell-based.
Series [2] relates to isolated rat hearts. In words: Isolated heart model of ischemia-reperfusion injury. The conditions noted are these: for heart rate when infused: 10 minutes prior to ischemia.
Series [3] deals with Sprague-Dawley rats. Type of series: in vivo, rat. The conditions noted are these: for HR / MAP / RPP: CAP 0.3 mg/kg, CsA 2.5 mg/kg, V1-cal 1 mg/kg, given 5 minutes prior to reperfusion.
Series [4] relates to Sprague-Dawley rats.
Series [5] concerns primary neonatal cardiomyocytes (PNCM). Nature of the series: Mitochondrial membrane potential by live cell imaging (TMRE/CMXRos), normoxia. Type of series: cell-based, rat. From the text: • Primary Neonatal Cardiomyocyte Isolation: Rat pups 1-3 days of age were used for primary neonatal cardiomyocyte isolation as previously described (Disatnik et al., Journal of the American Heart Association, 2013. 2:e000461). • Peptide Synthesis: Peptides were synthesized using microwave chemistry on a Liberty Microwave Peptide Synthesizer (CEM Corporation) (Gross et al., Basic Research in Cardiology, 2013. 108:381). Peptides were synthesized as one polypeptide with TAT47-57 carrier in the following order: N-terminus-TAT47-57-spacer (Gly-Gly)-cargo-C-terminus. • RT PCR: Total RNA was isolated from PNCM on day 4 in culture and H9C2 cells at passages 18, 23, 24 (Ambion RNAqueous kit). To reduce DNA contamination in the preparations, the isolated total RNA was subject to precipitation with lithium chloride and DNase digestion (Ambion DNase free). cDNA was generated from mRNA using Takara Primescript cDNA synthesis kit with oligo dT primers. Previously described primers, forward: […] (SEQ ID NO:112) and reverse: […] […] The amplified PCR product was subcloned into the pCR TOPO vector (Invitrogen) and sequenced. • Quantitative PCR: cDNA from mRNA was generated from H9C2, PNCM, and heart tissues (RA, LA, RV, LV) as described above. […]

For series [6], the system named is Sprague-Dawley rats. Nature of the series: In vivo rat remote conditioning (abdominal incision before LAD ischemia-reperfusion).
In series [7] the test system is Sprague-Dawley TRPV1 knockout rats. In words: In vivo LAD ischemia-reperfusion injury model in TRPV1 knockout rats. Details: species or system rat.
A short description of series [8]: Peptide stability, trypsin digestion analyzed by RP-HPLC. Type of series: in vitro ADME. The conditions noted are these: 20 minutes after exposure to trypsin; read-out: degraded. How it is done: FIG. 12: Determination of peptide stability. A. At baseline a single peak at 5 minutes was noted when V1-cal was analyzed by RP-HPLC (arrow in green). B. 10 minutes after trypsin digestion, V1-cal is still detected (arrow in green), yet is 75% degraded with the with multiple peaks detected as degradation products of V1-cal (black arrows). C. 20 minutes after exposure to trypsin, V1-cal is 100% degraded (with no peak at 5 minutes and multiple other peaks shown with black arrows detected).

The mark [9] stands for this setting: 15 min Ischemia, capsaicin 0.1 mg/kg.
[10] abbreviates: 15 min Ischemia, capsaicin 0.3 mg/kg.
The mark [11] stands for this setting: 15 min Ischemia, capsaicin 1.0 mg/kg.
The mark [12] stands for this setting: 15 min Ischemia, capsaicin 3.0 mg/kg.
The mark [13] stands for this setting: 2 hrs Reperfusion, capsaicin 0.1 mg/kg.
Setting [14] is: 2 hrs Reperfusion, capsaicin 0.3 mg/kg.
[15] abbreviates: 2 hrs Reperfusion, capsaicin 1.0 mg/kg.
Where [16] appears, read: 2 hrs Reperfusion, capsaicin 3.0 mg/kg.

Like-named read-outs stand apart in the source and are kept apart here. Ends that are not written are not given here.

On to `COc1cc(CNC(=O)CCCC/C=C/C(C)C)ccc1O` [capsaicin], for which, in series [1] (0.1 μM), the LDH release entry was “reduced LDH release”. For the same compound, the “reduction of LDH release” value in series [1] (1 and 10 μM) is “did not occur”. The “heart rate, isolated un-paced rat hearts” value in series [2] (capsaicin 0.1 μM versus vehicle (DMSO)) is given as “increased heart rate during the first 15 minutes of infusion”. Besides, the HR in series [3] (15 min Ischemia) is reported as 377 ± 11 beats/min; in series [3] (2 hrs Reperfusion) it was 363 ± 9 beats/min; in series [3] (Baseline), 370 ± 6 beats/min; in series [4] (setting [9]) it was 373 ± 10 beats/min; in series [4] (setting [10]) it was 360 ± 21 beats/min; in series [4] (setting [11]), 385 ± 15 beats/min. In addition, the HR was 420 ± 9 beats/min in series [4] (setting [12]); 362 ± 6 beats/min in series [4] (setting [13]); 368 ± 6 beats/min in series [4] (setting [14]); 367 ± 3 beats/min in series [4] (setting [15]); 370 ± 4 beats/min in series [4] (setting [16]); 377 ± 13 beats/min in series [4] (Baseline, capsaicin 0.1 mg/kg). Besides, the HR in series [4] (Baseline, capsaicin 0.3 mg/kg) is listed as 370 ± 11 beats/min; in series [4] (Baseline, capsaicin 1.0 mg/kg), 353 ± 11 beats/min; in series [4] (Baseline, capsaicin 3.0 mg/kg), 357 ± 8 beats/min. The MAP is on record as 118 ± 10 mmHg in series [3] (15 min Ischemia); 87 ± 7 mmHg in series [3] (2 hrs Reperfusion); 134 ± 3 mmHg in series [3] (Baseline); 110 ± 7 mmHg in series [4] (setting [9]); 89 ± 14 mmHg in series [4] (setting [10]); 104 ± 10 mmHg in series [4] (setting [11]). The MAP in series [4] (setting [12]) came out at 113 ± 5 mmHg; in series [4] (setting [13]) it was 86 ± 5 mmHg; in series [4] (setting [14]), 85 ± 3 mmHg; in series [4] (setting [15]), 79 ± 3 mmHg; in series [4] (setting [16]), 72 ± 4 mmHg; in series [4] (Baseline, capsaicin 0.1 mg/kg), 128 ± 4 mmHg. The MAP in series [4] (Baseline, capsaicin 0.3 mg/kg) is listed as 137 ± 7 mmHg; in series [4] (Baseline, capsaicin 1.0 mg/kg), 131 ± 6 mmHg; in series [4] (Baseline, capsaicin 3.0 mg/kg), 127 ± 4 mmHg. The RPP was found to be 51 ± 5 mmHg/1000 in series [3] (15 min Ischemia); 39 ± 3 mmHg/1000 in series [3] (2 hrs Reperfusion); 58 ± 2 mmHg/1000 in series [3] (Baseline); 47 ± 4 mmHg/1000 in series [4] (setting [9]); 40 ± 7 mmHg/1000 in series [4] (setting [10]); 46 ± 5 mmHg/1000 in series [4] (setting [11]). The RPP was 53 ± 3 mmHg/1000 in series [4] (setting [12]); 39 ± 2 mmHg/1000 in series [4] (setting [13]); 38 ± 2 mmHg/1000 in series [4] (setting [14]); 36 ± 2 mmHg/1000 in series [4] (setting [15]); 35 ± 2 mmHg/1000 in series [4] (setting [16]); 60 ± 5 mmHg/1000 in series [4] (Baseline, capsaicin 0.1 mg/kg). In addition, the RPP came out at 60 ± 5 mmHg/1000 in series [4] (Baseline, capsaicin 0.3 mg/kg); 55 ± 3 mmHg/1000 in series [4] (Baseline, capsaicin 1.0 mg/kg); 53 ± 2 mmHg/1000 in series [4] (Baseline, capsaicin 3.0 mg/kg). Further, the myocardial infarct size in series [3] (given just prior to reperfusion, n=6/group, control 61±2%) was 45±1%; in series [4] (3.0 mg/kg) it was “failed to reduce myocardial infarct size”; in series [4] (0.1-1.0 mg/kg), “reduced myocardial infarct size”. The “infarct size reduction when compared to control” value in series [3] (single intravenous bolus 5 minutes prior to reperfusion) is given as 27%. The infarct size entry is “partial effects” in series [4] (0.1 mg/kg and 1.0 mg/kg); “maximally decreased infarct size” in series [4] (0.3 mg/kg). Moreover, the “heart rate after intravenous administration” value in series [4] (0.1-3.0 mg/kg intravenously) is “dose-dependently increased heart rate”. The “mitochondrial membrane potential (TMRE)” value in series [5] (0.1-10 μM, over 30 minutes) is “dose-dependently decreased mitochondrial membrane potential”.

In the case of `Oc1cc2c(cc1O)CN(C(=S)NCCc1ccc(Cl)cc1)CCC2` [capsazepine], the “effect on incision-induced infarct size reduction” value in series [6] (3 mg/kg, internal jugular vein, 10 minutes before the incision) was “blocked”. In series [6] (15 min Ischemia), the “HR (heart rate)” value was found to be 396 ± 10 beats/min, the “MAP (mean arterial pressure)” value was 115 ± 9 mmHg and the “RPP (rate pressure product)” value amounted to 52 ± 5 mmHg/1000. In series [6] (2 hrs Reperfusion), the “HR (heart rate)” value is given as 374 ± 5 beats/min, the “MAP (mean arterial pressure)” value is reported as 82 ± 3 mmHg and the “RPP (rate pressure product)” value is reported as 39 ± 1 mmHg/1000. Further, in series [6] (Baseline), the “HR (heart rate)” value is on record as 384 ± 5 beats/min, the “MAP (mean arterial pressure)” value came out at 121 ± 4 mmHg and the “RPP (rate pressure product)” value worked out at 55 ± 2 mmHg/1000. In addition, in series [6] (capsazepine alone), the “infarct size, agent alone, compared to control” value is given as “no differences were noted for infarct size compared to the control group”. Besides, the “infarct size sparing effect of capsaicin” value in series [4] (CPZ 3 mg/kg, CsA 2.5 mg/kg, 40 minutes prior to ischemia) is on record as “blocked the infarct size sparing effect of capsaicin”. Besides, the “change in heart rate afforded by capsaicin” value in series [4] (capsaicin 0.3 mg/kg, CPZ 3 mg/kg, CsA 2.5 mg/kg) was “reduced the change in heart rate”. Also, the “changes in mitochondrial membrane potential induced by capsaicin” value in series [5] (treated 10 minutes prior to capsaicin) was “blocked”.

YGRKKRRQRRRGGAIIITILDTEIS [A5-cal]: the “heart rate when infused” value in series [2] is reported as “neither peptide had any effects on heart rate”.

Regarding YGRKKRRQRRRGGRAITILDTEKS [V1-cal], in series [2], the “heart rate when infused” value is on record as “neither peptide had any effects on heart rate”. For the same compound, the HR in series [3] (15 min Ischemia) was 432 ± 10 beats/min; in series [3] (2 hrs Reperfusion), 389 ± 15 beats/min; in series [3] (Baseline), 428 ± 6 beats/min; in series [7] (15 min Ischemia), 446 ± 13 beats/min; in series [7] (Baseline), 439 ± 12 beats/min. Moreover, the MAP in series [3] (15 min Ischemia) is on record as 110 ± 5 mmHg; in series [3] (2 hrs Reperfusion) it was 68 ± 5 mmHg; in series [3] (Baseline) it was 115 ± 5 mmHg; in series [7] (15 min Ischemia) it was 114 ± 7 mmHg; in series [7] (2 hrs Reperfusion), 84 ± 8 mmHg; in series [7] (Baseline), 123 ± 6 mmHg. Moreover, the RPP in series [3] (15 min Ischemia) is 47 ± 3 mmHg/1000; in series [3] (2 hrs Reperfusion) it was 26 ± 3 mmHg/1000; in series [3] (Baseline) it was 49 ± 3 mmHg/1000; in series [7] (15 min Ischemia), 56 ± 4 mmHg/1000; in series [7] (2 hrs Reperfusion) it was 40 ± 4 mmHg/1000; in series [7] (Baseline), 61 ± 4 mmHg/1000. Further, the values for the TIME in series [7] (15 min Ischemia), in series [7] (2 hrs Reperfusion) and in series [7] (Baseline) were 37.1 ± 0.1, 37 ± 0.1 and 36.9 ± 0.2, respectively. For the same compound, the metabolised at 20 min in series [8] came to 100%.
